From patent US20070287726A1, “5-Substituted 1H-Pyrrolo [3,2-B] Pyridines” (Altana Pharma AG, priority 2004, published 2007) come the findings set out here.

A word on the melting point: it is the temperature, or range, at which the solid turns liquid.

The test system of series [1] is pentagastrin-stimulated acid secretion of the perfused rat stomach. In words: Secretion-inhibiting action on the perfused rat stomach. The class given is in vivo. The settings on record: anesthetized CD rat. From the text: In Table A which follows, the influence of the compounds of the formula 1 according to the invention on the pentagastrin-stimulated acid secretion of the perfused rat stomach after intraduodenal/intravenous administration in vivo is shown.
The abdomen of anesthetized rats (CD rat, female, 200-250 g; 1.5 g/kg i.m. urethane) was opened after tracheotomy by a median upper abdominal incision and a PVC catheter was fixed transorally in the esophagus and another via the pylorus such that the ends of the tubes just projected into the gastric lumen. The catheter leading from the pylorus led outward into the right abdominal wall through a side opening.
After thorough rinsing (about 50-100 ml), warm (37° C.) physiological NaCl solution was continuously passed through the stomach (0.5 ml/min, pH 6.8-6.9; Braun-Unita I). The pH (pH meter 632, glass electrode EA 147; φ=5 mm, Metrohm) and, by titration with a freshly prepared 0.01N NaOH solution to pH 7 (Dosimat 665 Metrohm), the secreted HCl were determined in the effluent in each case collected at an interval of 15 minutes.
The gastric secretion was stimulated by continuous infusion of 1 μg/kg (=1.65 ml/h) of i.v. pentagastrin (left femoral vein) about 30 min after the end of the operation (i.e. after determination of 2 preliminary fractions). The substances to be tested were administered intraduodenally (substance 7 intravenously) in a 2.5 ml/kg liquid volume 60 min after the start of the continuous pentagastrin infusion.
The body temperature of the animals was kept at a constant 37.8-38° C. by infrared irradiation and heat pads (automatic, stepless control by means of a rectal temperature sensor).

As for `CCOC(=O)c1cc(NCc2c(C)cccc2C)c2[nH]c(C)c(CO)c2n1` [Example 19, Ethyl[7-(2,6-dimethyl-benzylamino)-3-hydroxymethyl-2-methyl-1H-pyrrolo[3,2-b]pyridine-5-carboxylate]], the melting point is 256 to 259 °C.

For `CCc1cccc(C)c1CNc1cc(C(=O)N(C)C)nc2c(Br)c(C)[nH]c12` [Example 5, 3-Bromo-7-(2-ethyl-6-methyl-benzylamino)-2-methyl-1H-pyrrolo[3,2-b]pyridine-5-carboxylic acid dimethylamide], in series [1] (dose 1 μmol/kg i.d.), the “Inhibition of acid secretion (%)” value was greater than 30%.

Regarding `CCc1cccc(C)c1CNc1cc(C(=O)N(C)C)nc2c(C)c(C)[nH]c12` [Example 7, 7-(2-Ethyl-6-methyl-benzylamino)-2,3-dimethyl-1H-pyrrolo[3,2-b]pyridine-5-carboxylic acid dimethylamide], in series [1] (dose 2 μmol/kg i.v.), the “Inhibition of acid secretion (%)” value is reported as greater than 80%.

Consider `CCOC(=O)c1cc(NCc2c(C)cccc2C)c2[nH]c(C)cc2n1` [Example 9, Ethyl[7-(2,6-dimethyl-benzylamino)-2-methyl-1H-pyrrolo[3,2-b]pyridine-5-carboxylate]], for which the melting point turned out to be 254 °C.

`CCOC(=O)c1cc(NCc2c(C)cccc2CC)c2[nH]c(C)cc2n1` [Example 2, Ethyl[7-(2-ethyl-6-methyl-benzylamino)-2-methyl-1H-pyrrolo[3,2-b]pyridine-5-carboxylate]]: the melting point is 274 to 275 °C.

In turn, `CCc1cccc(C)c1CNc1cc(Cl)nc2cc(C)[nH]c12` [Example 1, (5-Chloro-2-methyl-1H-pyrrolo[3,2-b]pyridin-7-yl)-(2-ethyl-6-methyl-benzyl)-amine] displayed a melting point of 296 °C.

With `Cc1cccc(C)c1CNc1cc(C(=O)N(C)C)nc2c(Br)c(C)[nH]c12` [Example 12, 3-Bromo-7-(2,6-dimethyl-benzylamino)-2-methyl-1H-pyrrolo[3,2-b]pyridine-5-carboxylic acid dimethylamide], in series [1] (dose 3 μmol/kg i.d.), the “Inhibition of acid secretion (%)” value is greater than 60%.

`CCc1cccc(C)c1CNc1cc(C(=O)N(C)C)nc2c(CO)c(C)[nH]c12` [Example 6, 7-(2-Ethyl-6-methyl-benzylamino)-3-hydroxymethyl-2-methyl-1H-pyrrolo[3,2-b]pyridine-5-carboxylic acid dimethylamide]: the “Inhibition of acid secretion (%)” value in series [1] (dose 1 μmol/kg i.d.) is greater than 30%.

Regarding `Cc1cccc(C)c1CNc1cc(C(=O)N(C)C)nc2c(C)c(C)[nH]c12` [Example 14, 7-(2,6-Dimethyl-benzylamino)-2,3-dimethyl-1H-pyrrolo[3,2-b]pyridine-5-carboxylic acid dimethylamide], the “Inhibition of acid secretion (%)” value in series [1] (dose 1 μmol/kg i.d.) is greater than 50%.
